Measurements as given in ChEMBL document CHEMBL3792297, “Studies on phenothiazines: New microtubule-interacting compounds with phenothiazine A-ring as potent antineoplastic agents” (Bioorg Med Chem, 2016).

Assays:
Type in all cases: functional
NCI-H460 = assay: Growth inhibition of human NCI-H460 cells after 48 hrs by SRB assay; conditions: NCI-H460, 48 h
[1] = Growth inhibition of human BT549 cells at 10 uM after 48 hrs by SRB assay relative to control; conditions: BT-549, 48 h, read-out: GI
[2] = Growth inhibition of human SNB75 cells at 10 uM after 48 hrs by SRB assay relative to control; conditions: SNB-75, 48 h, read-out: GI
[3] = Growth inhibition of human OVCAR8 cells after 48 hrs by SRB assay; conditions: OVCAR-8, 48 h
MDA-MB-468 = assay: Growth inhibition of human MDA-MB-468 cells after 48 hrs by SRB assay; conditions: MDA-MB-468, 48 h
[4] = Growth inhibition of human SF268 cells at 10 uM after 48 hrs by SRB assay relative to control; conditions: SF-268, 48 h, read-out: GI
MCF7 = assay: Growth inhibition of human MCF7 cells after 48 hrs by SRB assay; conditions: MCF7, 48 h
[5] = Growth inhibition of human Caki1 cells after 48 hrs by SRB assay; conditions: CAKI-1, 48 h
[6] = Growth inhibition of human PC3 cells at 10 uM after 48 hrs by SRB assay relative to control; conditions: PC-3, 48 h, read-out: GI
[7] = Growth inhibition of human OVCAR4 cells at 10 uM after 48 hrs by SRB assay relative to control; conditions: OVCAR-4, 48 h, read-out: GI
SK-MEL-28 = assay: Growth inhibition of human SK-MEL-28 cells after 48 hrs by SRB assay; conditions: SK-MEL-28, 48 h
CCRF-CEM = assay: Growth inhibition of human CCRF-CEM cells at 10 uM after 48 hrs by SRB assay relative to control; conditions: read-out: GI
NCI-H23 = assay: Growth inhibition of human NCI-H23 cells at 10 uM after 48 hrs by SRB assay relative to control; conditions: NCI-H23, 48 h, read-out: GI
[8] = Growth inhibition of human OVCAR3 cells at 10 uM after 48 hrs by SRB assay relative to control; conditions: OVCAR-3, 48 h, read-out: GI
MDA-MB-435 = assay: Growth inhibition of human MDA-MB-435 cells after 48 hrs by SRB assay; conditions: MDA-MB-435, 48 h
[9] = Growth inhibition of human SKOV3 cells at 10 uM after 48 hrs by SRB assay relative to control; conditions: SK-OV-3, 48 h, read-out: GI
SR [10] = assay: Growth inhibition of human SR cells after 48 hrs by SRB assay
M14 = assay: Growth inhibition of human M14 cells after 48 hrs by SRB assay; conditions: M14, 48 h
NCI-H226 = assay: Growth inhibition of human NCI-H226 cells at 10 uM after 48 hrs by SRB assay relative to control; conditions: NCI-H226, 48 h, read-out: GI
[11] = Growth inhibition of human UACC62 cells at 10 uM after 48 hrs by SRB assay relative to control; conditions: UACC-62, 48 h, read-out: GI
HT-29 = assay: Growth inhibition of human HT-29 cells after 48 hrs by SRB assay; conditions: HT-29, 48 h
SR [12] = assay: Growth inhibition of human SR cells at 10 uM after 48 hrs by SRB assay relative to control; conditions: read-out: GI
[13] = Growth inhibition of human NCI-ADR-RES cells at 10 uM after 48 hrs by SRB assay relative to control; conditions: read-out: GI
[14] = Growth inhibition of human OVCAR3 cells after 48 hrs by SRB assay; conditions: OVCAR-3, 48 h
[15] = Growth inhibition of human MOLT4 cells after 48 hrs by SRB assay; conditions: MOLT-4, 48 h
[16] = Growth inhibition of human OVCAR8 cells at 10 uM after 48 hrs by SRB assay relative to control; conditions: OVCAR-8, 48 h, read-out: GI
[17] = Growth inhibition of human Hs 578T cells after 48 hrs by SRB assay
[18] = Growth inhibition of human MOLT4 cells at 10 uM after 48 hrs by SRB assay relative to control; conditions: MOLT-4, 48 h, read-out: GI
[19] = Growth inhibition of human SF295 cells at 10 uM after 48 hrs by SRB assay relative to control; conditions: SF-295, 48 h, read-out: GI
[20] = Growth inhibition of human SF295 cells after 48 hrs by SRB assay; conditions: SF-295, 48 h
KM12 [21] = assay: Growth inhibition of human KM12 cells at 10 uM after 48 hrs by SRB assay relative to control; conditions: KM12, 48 h, read-out: GI
KM12 [22] = assay: Growth inhibition of human KM12 cells after 48 hrs by SRB assay; conditions: KM12, 48 h
[23] = Growth inhibition of human HCT15 cells at 10 uM after 48 hrs by SRB assay relative to control; conditions: HCT-15, 48 h, read-out: GI
SK-MEL-5 [24] = assay: Growth inhibition of human SK-MEL-5 cells after 48 hrs by SRB assay; conditions: SK-MEL-5, 48 h
[25] = Growth inhibition of human SF539 cells at 10 uM after 48 hrs by SRB assay relative to control; conditions: SF-539, 48 h, read-out: GI
A498 = assay: Growth inhibition of human A498 cells after 48 hrs by SRB assay; conditions: A498, 48 h
EKVX = assay: Growth inhibition of human EKVX cells at 10 uM after 48 hrs by SRB assay relative to control; conditions: read-out: GI
[26] = Growth inhibition of human HCT116 cells after 48 hrs by SRB assay; conditions: HCT-116, 48 h
[27] = Growth inhibition of human Hs 578T cells at 10 uM after 48 hrs by SRB assay relative to control; conditions: read-out: GI
[28] = Growth inhibition of human BT549 cells after 48 hrs by SRB assay; conditions: BT-549, 48 h
[29] = Growth inhibition of human COLO205 cells after 48 hrs by SRB assay; conditions: COLO 205, 48 h
[30] = Growth inhibition of human IGROV1 cells after 48 hrs by SRB assay; conditions: IGROV-1, 48 h
SK-MEL-2 = assay: Growth inhibition of human SK-MEL-2 cells after 48 hrs by SRB assay; conditions: SK-MEL-2, 48 h
SK-MEL-5 [31] = assay: Growth inhibition of human SK-MEL-5 cells at 10 uM after 48 hrs by SRB assay relative to control; conditions: SK-MEL-5, 48 h, read-out: GI
[32] = Growth inhibition of human HCT15 cells after 48 hrs by SRB assay; conditions: HCT-15, 48 h
[33] = Growth inhibition of human RXF393 cells after 48 hrs by SRB assay; conditions: RXF 393, 48 h

## COc1ccc(C(=O)N2c3ccccc3Sc3ccccc32)cc1F
NCI-H460
  GI50: 340 nM
[1]
  inhibition of growth at 10 µM: 83%
[2]
  inhibition of growth at 10 µM: 81%
[3]
  GI50: 420 nM
MDA-MB-468
  GI50: 231 nM
[4]
  inhibition of growth at 10 µM: 58%
MCF7
  GI50: 346 nM
[5]
  GI50: 465 nM
[6]
  inhibition of growth at 10 µM: 71%
[7]
  inhibition of growth at 10 µM: 59%
SK-MEL-28
  GI50: 320 nM
CCRF-CEM
  inhibition of growth at 10 µM: 88%
NCI-H23
  inhibition of growth at 10 µM: 86%
[8]
  inhibition of growth at 10 µM: 100%
MDA-MB-435
  GI50: 36 nM
[9]
  inhibition of growth at 10 µM: 87%
SR [10]
  GI50: 162 nM
M14
  GI50: 232 nM
NCI-H226
  inhibition of growth at 10 µM: 30%
[11]
  inhibition of growth at 10 µM: 62%
HT-29
  GI50: 283 nM
SR [12]
  inhibition of growth at 10 µM: 75%
[13]
  inhibition of growth at 10 µM: 100%
[14]
  GI50: 249 nM
[15]
  GI50: 323 nM
[16]
  inhibition of growth at 10 µM: 97%
[17]
  GI50: 193 nM
[18]
  inhibition of growth at 10 µM: 67%
[19]
  inhibition of growth at 10 µM: 89%
[20]
  GI50: 251 nM
KM12 [21]
  inhibition of growth at 10 µM: 81%
KM12 [22]
  GI50: 203 nM
[23]
  inhibition of growth at 10 µM: 76%
SK-MEL-5 [24]
  GI50: 443 nM
[25]
  inhibition of growth at 10 µM: 91%
A498
  GI50: 219 nM
EKVX
  inhibition of growth at 10 µM: 59%
[26]
  GI50: 358 nM
[27]
  inhibition of growth at 10 µM: 100%
[28]
  GI50: 439 nM
[29]
  GI50: 236 nM
[30]
  GI50: 566 nM
SK-MEL-2
  GI50: 352 nM
SK-MEL-5 [31]
  inhibition of growth at 10 µM: 93%
[32]
  GI50: 287 nM
[33]
  GI50: 211 nM

## O=C(c1ccc2c(c1)Sc1ccccc1N2)c1c[nH]c2ccccc12
NCI-H460
  GI50: 347 nM
[1]
  inhibition of growth at 10 µM: 69%
[2]
  inhibition of growth at 10 µM: 100%
[3]
  GI50: 556 nM
MDA-MB-468
  GI50: 301 nM
[4]
  inhibition of growth at 10 µM: 45%
MCF7
  GI50: 312 nM
[5]
  GI50: 359 nM
[6]
  inhibition of growth at 10 µM: 74%
[7]
  inhibition of growth at 10 µM: 39%
SK-MEL-28
  GI50: 630 nM
CCRF-CEM
  inhibition of growth at 10 µM: 81%
NCI-H23
  inhibition of growth at 10 µM: 68%
[8]
  inhibition of growth at 10 µM: 100%
MDA-MB-435
  GI50: 98 nM
[9]
  inhibition of growth at 10 µM: 85%
SR [10]
  GI50: 173 nM
M14
  GI50: 319 nM
NCI-H226
  inhibition of growth at 10 µM: 18%
[11]
  inhibition of growth at 10 µM: 46%
HT-29
  GI50: 358 nM
SR [12]
  inhibition of growth at 10 µM: 76%
[13]
  inhibition of growth at 10 µM: 100%
[14]
  GI50: 360 nM
[15]
  GI50: 642 nM
[16]
  inhibition of growth at 10 µM: 77%
[17]
  GI50: 239 nM
[18]
  inhibition of growth at 10 µM: 73%
[19]
  inhibition of growth at 10 µM: 96%
[20]
  GI50: 314 nM
KM12 [21]
  inhibition of growth at 10 µM: 87%
KM12 [22]
  GI50: 311 nM
[23]
  inhibition of growth at 10 µM: 68%
SK-MEL-5 [24]
  GI50: 452 nM
[25]
  inhibition of growth at 10 µM: 100%
A498
  GI50: 172 nM
EKVX
  inhibition of growth at 10 µM: 47%
[26]
  GI50: 378 nM
[27]
  inhibition of growth at 10 µM: 100%
[28]
  GI50: 366 nM
[29]
  GI50: 285 nM
[30]
  GI50: 683 nM
SK-MEL-2
  GI50: 309 nM
SK-MEL-5 [31]
  inhibition of growth at 10 µM: 89%
[32]
  GI50: 408 nM
[33]
  GI50: 510 nM

## O=C(c1ccc(F)c(Cl)c1)N1c2ccccc2Sc2ccccc21
[1]
  inhibition of growth at 10 µM: 42%
[2]
  inhibition of growth at 10 µM: 31%
[4]
  inhibition of growth at 10 µM: 33%
[6]
  inhibition of growth at 10 µM: 60%
[7]
  inhibition of growth at 10 µM: 20%
CCRF-CEM
  inhibition of growth at 10 µM: 42%
NCI-H23
  inhibition of growth at 10 µM: 21%
[8]
  inhibition of growth at 10 µM: 37%
[9]
  inhibition of growth at 10 µM: 11%
NCI-H226
  inhibition of growth at 10 µM: 23%
[11]
  inhibition of growth at 10 µM: 74%
SR [12]
  inhibition of growth at 10 µM: 66%
[13]
  inhibition of growth at 10 µM: 60%
[16]
  inhibition of growth at 10 µM: 10%
[18]
  inhibition of growth at 10 µM: 56%
[19]
  inhibition of growth at 10 µM: 36%
KM12 [21]
  inhibition of growth at 10 µM: 60%
[23]
  inhibition of growth at 10 µM: 73%
[25]
  inhibition of growth at 10 µM: 38%
EKVX
  inhibition of growth at 10 µM: 26%
[27]
  inhibition of growth at 10 µM: 21%
SK-MEL-5 [31]
  inhibition of growth at 10 µM: 66%
